Reference: the supplement of paper PMC10307832

Columns and labels:
Test in all cases: relative viability (nuclei count vs DMSO), 5 days (fraction); higher = more cells survive
[1] = compound: COc1cc2nc(N3CCCN(C)CC3)nc(NC3CCN(Cc4ccccc4)CC3)c2cc1OC + Cc1nc(Nc2ncc(C(=O)Nc3c(C)cccc3Cl)s2)cc(N2CCN(CCO)CC2)n1 [Dasatinib] (partner 0.075 µM)
In short: (§1)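 Relative viability is defined as nuclei in treated wells over nuclei in vehicle wells. Duplicate plates were run and medians reported. Lung cancer cell lines in 1536-well plates were dosed by pin tool one day after seeding, with one drug or with a fixed anchor-drug dose plus five library-drug doses (not always all listed) in √10 steps, and nuclei were counted after 5 days.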

[2] = compound: COc1cc2nc(N3CCCN(C)CC3)nc(NC3CCN(Cc4ccccc4)CC3)c2cc1OC + Cc1nc(NC(=O)N2CCC[C@H]2C(N)=O)sc1-c1ccnc(C(C)(C)C(F)(F)F)c1 [Alpelisib] (partner 2 µM)
In short: as §1

AZD6482 + Crizotinib = compound: Cc1cc([C@@H](C)Nc2ccccc2C(=O)O)c2nc(N3CCOCC3)cc(=O)n2c1 [AZD6482] + C[C@@H](Oc1cc(-c2cnn(C3CCNCC3)c2)cnc1N)c1c(Cl)ccc(F)c1Cl [Crizotinib] (partner 1 µM)
In short: as §1

AZD6482 + Foretinib = compound: Cc1cc([C@@H](C)Nc2ccccc2C(=O)O)c2nc(N3CCOCC3)cc(=O)n2c1 [AZD6482] + COc1cc2c(Oc3ccc(NC(=O)C4(C(=O)Nc5ccc(F)cc5)CC4)cc3F)ccnc2cc1OCCCN1CCOCC1 [Foretinib] (partner 0.25 µM)
In short: as §1

Row | Cell Line | relative viability ([1]; first compound 0.2 µM) | relative viability ([1]; first compound 0.6325 µM) | relative viability ([1]; first compound 2 µM) | relative viability ([1]; first compound 6.325 µM) | relative viability ([2]; first compound 0.2 µM) | relative viability ([2]; first compound 0.6325 µM) | relative viability ([2]; first compound 2 µM) | relative viability ([2]; first compound 6.325 µM) | relative viability (AZD6482 + Crizotinib; first compound 0.08 µM) | relative viability (AZD6482 + Crizotinib; first compound 0.253 µM) | relative viability (AZD6482 + Crizotinib; first compound 0.8 µM) | relative viability (AZD6482 + Crizotinib; first compound 2.53 µM) | relative viability (AZD6482 + Crizotinib; first compound 8 µM) | relative viability (AZD6482 + Foretinib; first compound 0.08 µM) | relative viability (AZD6482 + Foretinib; first compound 0.8 µM) | relative viability (AZD6482 + Foretinib; first compound 2.53 µM) | relative viability (AZD6482 + Foretinib; first compound 8 µM) | relative viability (AZD6482 + Foretinib; first compound 0.253 µM)
1 | NCI-H2405 | 0.213 | 0.214 | 0.2 | 0.202 | 0.784 | 0.772 | 0.835 | 0.632 | 0.577 | 0.772 | 0.893 | 0.587 | 0.546 | 0.642 | 0.968 | 0.608 | 0.57 | 
2 | NCI-H3122 | 0.969 | 0.763 | 0.894 | 0.765 | 0.73 | 0.803 | 0.834 | 0.723 | 0.243 | 0.285 | 0.27 | 0.212 | 0.25 | 0.937 | 1.09 | 0.946 | 0.926 | 0.846
3 | PC-3 [JPC-3] | 0.954 | 0.908 | 1.08 | 1 | 1.06 | 0.97 | 1.09 | 0.986 | 0.926 | 0.988 | 0.952 | 0.862 | 1.02 | 0.928 | 1.09 | 0.877 | 0.875 | 1.09
4 | PC-14 | 0.236 | 0.277 | 0.197 | 0.0162 | 0.981 | 0.918 | 1.05 | 0.901 | 0.826 | 0.896 | 0.904 | 0.783 | 0.876 | 0.906 | 0.945 | 0.83 | 0.953 | 0.9
5 | RERF-LC-KJ | 0.805 | 0.812 | 1.01 | 0.567 | 0.905 | 0.878 | 0.902 | 0.661 | 0.745 | 0.776 | 0.832 | 0.818 | 0.676 | 0.791 | 0.822 | 0.781 | 0.7 | 0.825
6 | SK-LU-1 | 0.21 | 0.159 | 0.206 | 0.119 | 1.21 | 0.977 | 1.04 | 0.577 |  | 0.908 | 0.931 | 0.696 | 0.886 |  | 0.688 | 0.555 | 0.584 | 0.735
7 | SK-MES-1 | 0.41 | 0.374 | 0.386 | 0.171 | 1.08 | 0.887 | 0.975 | 0.827 | 0.854 | 0.838 | 0.86 | 0.419 | 0.439 | 0.519 | 0.565 | 0.422 | 0.403 | 0.783
8 | SW 1573 | 0.453 | 0.454 | 0.665 | 0.295 | 0.614 | 0.696 | 0.729 | 0.724 | 0.781 | 0.696 | 0.733 | 0.548 | 0.466 | 0.792 | 0.862 | 0.726 | 0.608 | 0.776
